Where two headings read alike, the source gives them in different places.
Legend:
[1] = Body weight in cisplatin induced neuropathy rat model; assay type: in vivo
Method: (c) 4 treated-cisplatin-intoxicated groups (n=10) consisting of animals receiving daily SC injections of IL-6 compound at 4 different doses: 0.3, 1, 3, 10 μg/kg; and (d) a 4-methylcatechol (4-MC)-treated, cisplatin-intoxicated group (n=10) receiving a daily IP injection of 4-MC at 10 μg/kg. […] The drug was diluted in 0.9% sterile aqueous solution of sodium chloride.

[2] = tested on: cisplatin induced neuropathy; assay type: in vivo, rat
Method: Electrophysiological monitoring in cisplatin-induced neuropathy model was carried out as described in Example 17. The objective was to assess the effect of co-administration with IL-6 in cisplatin-induced loss of fiber/nerve function.
Electrophysiological recordings were performed using a Neuromatic 2000M electromyograph (EMG) (Dantec, Les Ulis, France). Rats were anaesthetized by IP injection of 60 mg/kg ketamine chlorhydrate (Imalgene 500®, Rhône Merieux, Lyon, France). The normal body temperature was maintained around […] with a heating lamp and verified using a contact thermometer (Quick, Bioblock Scientific, Illkirch, France) placed on the tail surface.
Compound muscle action potential (CMAP) of M wave signal (or electrically evoked muscle potential) was recorded in the gastrocnemius muscle after stimulation of the sciatic nerve. M wave reflects the current developed during the action potential of muscle fibers. A reference electrode and an active needle were placed in the hind paw. A ground needle was inserted on the lower back of the rat. Sciatic nerve was stimulated with a single 0.2 ms pulse at supramaximal intensity. The […] of the motor wave was recorded and expressed in ms.
Sensitive nerve conduction velocity (SNCV) was also recorded. The tail skin electrodes were placed as follows: a reference needle inserted at the base of the tail and an anode needle placed 30 mm away from the reference needle toward the extremity of the tail. A ground needle electrode was inserted between the anode and reference needles. The caudal nerve was stimulated with a series of 20 pulses (for 0.2 ms) at an intensity of 12.8 mA. The velocity was expressed in m/s.
H-wave reflex was recorded in the hind footpad muscle after stimulation of the sciatic nerve. A reference electrode and a ground needle were placed on the lower back of the rat. The sciatic nerve was stimulated with a single 0.2 ms pulse at supramaximal intensity. The amplitude (mV) of H wave and the proportion of animal lacking H wave response were the parameters studied.

[3] = tested on: lung (SK-MES1) tumor cell line; assay: Cell survival by acid phosphatase activity assay, SK-MES1; assay type: cell-based, human
Method: (§1) The human lung (SK-MES1) and breast (MCF7) tumor cell lines were obtained from ATCC. The cell lines were maintained in Dulbecco's MEM medium (Gibco; Invitrogen, Cergy-Pontoise, France, ref. 41965039) supplemented with 1% antibiotic/antimicotic mixture solution (Gibco, ref. 15240062), and 10% heat-inactivated foetal bovine serum (Gibco, ref. F7524, batch 92K3387). The cells were amplified in Nunc tissue culture flasks (80 cm2) in a humidified incubator at 37° C. with 5% CO2 in 95% air. Cultures were sub-cultured twice a week.
(§2) The enzymatic activity has been proven to be proportional to the number of living cells (Ueda et al.; 1994).
(§3) Three days after the last replication, tumor cells were seeded in 96 well-plates (TPP, VWR International, Fontenay-sous-bois, France) at a density of 1,500 cells (MCF7 line) or 3,000 cells (SK-MES1 line) per well, in a total volume of 100 μl/well and incubated overnight in a humidified incubator at 37° C. with 5% CO2 in 95% air. […] IL-6 (in buffer solution at 1.8 mg/ml, PH: 7) was immediately added at concentrations of 0, 3, 12, 50 or 200 ng/ml.
(§4) Four days after the initiation of the intoxication, acid phosphatase activity (Example 21) in each cell culture was assessed.
(§5) After removal of the culture medium, cells were rinsed with phosphate-buffered saline (PBS, Gibco, ref. 14190-094) and further incubated for 90 min at 37° C. in 100 μl of buffer containing 0.1 mol/l sodium acetate (pH 5.5), 0.1% Triton X100 (Sigma, ref. T9284) and 10 mmol/l p-nitrophenyl phosphate (Sigma, ref. N9389). Reaction was stopped by addition of 10 μl of 1 mol/l sodium hydroxide aqueous solution (Laboratoire de Produit Chimiques de la Robertsau, Strasbourg, France; ref. 28.252.293). Absorbance of the colored solution was measured at 405 nm in a microplate reader (Labsystems Multiskan Bichromatic, EST-LAB, Strasbourg, France).
(§6) The results were expressed as percentage of optical density of the control cell cultures. The heights of the columns represent mean±SEM of percentages of 5-6 wells from two independent cultures.

[4] = tested on: human WiDr colon carcinoma; assay: Human WiDr colon carcinoma tumor growth in nude mice; assay type: in vivo, mouse
Method: The following experiment was carried out to check potential drug interaction between IL-6 and the chemotherapeutic agent in vivo.
Balb/c nude mice are used since have proven to be susceptible host systems for the growth of human WiDr colon carcinoma tumor cells. WiDr cells were provided by the bank of the National Cancer Research Institute Genova-Italy. Cell species: human, tissue: colon, tumor: colon adenocarcinoma, accession number: ICLC HTL00003.
Tumor size was recorded twice a week for 4 weeks starting 4 days after cell inoculation.
Each Balb/c nude mice (about 20-25 g body weight) was inoculated subcutaneously (s.c.) with 10^7+5% WiDr cells/mouse (0.2 mL/mouse of cell suspension) on day 1.
A group administered with 0.02% mouse albumin (Sigma) in 40 mM phosphate buffer at pH=7.0, s.c., a group administered with 3.5 mg/kg Cis-platinum, i.p. (in 0.9% NaCl sterile solution for injection), three groups of rats each treated with IL-6 (in 0.02% mouse albumin in 40 mM phosphate buffer at pH=7.0), s.c. at 3, 10 or 30 μg/kg and three groups of rats treated with IL-6 either at 3, 10 or 30 μg/kg IL-6, s.c. in combination with cis-platinum 3.5 mg/kg, i.p.
IL-6 at […] was given s.c. daily (10 mL/kg) from day 4 up to day 18. […] Tumor size was recorded twice a week for 4 weeks starting 4 days after cell inoculation. […]

[5] = tested on: breast (MCF7) tumor cell line; assay: Cell survival by acid phosphatase activity assay, MCF7; assay type: cell-based, human
Method: as §1, §2, §3, §4, §5, §6

[6] = IL-6 3, 12, 50 or 200 ng/ml, p>0.05
[7] = cisplatin (2.5 μM), carboplatin (25 μM), 4 days

Compound	animal growth under cisplatin with IL-6 ([1]; IL-6 0.3, 1, 3, 10 μg/kg SC daily with cisplatin)	loss of H wave amplitude by cisplatin ([2]; IL-6 10 μg/kg SC daily, throughout the experiment)	loss of H wave amplitude by cisplatin ([2]; IL-6 0.3, 1, 3, 10 μg/kg SC daily)	SNCV in cisplatin treated rats ([2]; IL-6, especially at 3 and 10 μg/kg, after 5 weeks)	prevention of cisplatin-induced loss of fiber/nerve function compared with 4-MC ([2]; IL-6 vs 4-MC 10 μg/kg IP)	survival of vincristine or cisplatine treated cells in the presence of IL-6 [3, 6]	survival of carboplatin-intoxicated cells in the presence of IL-6 ([3]; IL-6 3, 12, 50 or 200 ng/ml, significant)	effect of taxol on cell survival with IL-6 ([3]; IL-6 3-200 ng/ml, p>0.05)	survival of cells intoxicated with carboplatin and taxol in the presence of IL-6 ([3]; p>0.05)	WiDr tumor growth ([4]; IL-6 alone 3, 10 and 30 μg/kg s.c. daily day 4 to 18)	survival of vincristine or cisplatine or carboplatin treated cells in the presence of IL-6 [5, 6]	effect of taxol on cell survival with IL-6 ([5]; IL-6 3-200 ng/ml, p>0.05)	survival of cells intoxicated with carboplatin and taxol in the presence of IL-6 ([5]; p>0.05)	body weight lost at completion of cisplatin administration ([1]; cisplatin 2 mg/kg IP twice a week, 4 weeks, vehicle-treated)	SNCV versus non-treated control ([2]; rat, in vivo)	reduction of H wave amplitude ([2]; rat, in vivo)	decrease in cell survival versus control [3, 7]	WiDr tumor growth ([4]; cisplatin 3.5 mg/kg i.p. days 4, 8, 12, 18, significant on days 18, 22, 25)	decrease in cell survival versus control [5, 7]
IL-6: Recombinant human IL-6 produced in genetically engineered Chinese Hamster Ovary (CHO) cells	marked inhibition of animal growth, regardless of IL-6 treatments undertaken	fully prevented the loss of H wave amplitude	reduce/prevent the loss of H wave amplitude	improve SNCV	more effective in preventing cisplatin-induced loss of fiber/nerve function than 4-MC	did not change significantly	decrease of survival	did not change the effect of taxol	remained unchanged	did not significantly affect the growth of the tumor	did not change significantly	did not change the effect of taxol	remained unchanged	–	–	–	–	–	–
N.N.[Cl][Pt][Cl] [cisplatin, Cis-dichlorodiamine platinum]	–	–	–	–	–	–	–	–	–	–	–	–	–	about 10%	significantly slow	about 80%	about 50%	reduce tumor growth	about 50%

From patent US7951359B2, “Compositions and methods for therapy or prevention of chemotherapy-induced neuropathy” (Merck Serono SA, priority 2004, dated 2011)
